We go through three molecules from PMC10755736, “Modulating Liquid–Liquid Phase Separation of Nck Adaptor Protein against Enteropathogenic Escherichia coli Infection” (ACS Central Science, 2023).

The target in one data set is T1, Nck (Homo sapiens, UniProt P16333).
T1 construct: GST (followed by PreScission/HRV 3C site) (N, cleaved yes); made in house; host or cells: E. coli BL21(DE3)
Nature of the data set: Crosslinking of peptides with recombinant Nck in vitro (SDS-PAGE, Western blotting). The settings on record: peptide:Nck 5:1, 37 °C, PBS, 1 h; SDS-PAGE and anti-biotin Western blotting. In kind it is binding. The text has this:
Although peptide Y474 can block Nck-mediated LLPS, the requirement of a high concentration of the blocker peptide is hard to achieve inside the cell. […] The side chains of the Nck lysine residues are pointing toward the residues at pY+1 and pY+2 positions with distances of only 4 to 6 Å. This unique feature gives us an opportunity to design covalent blockers for Nck-SH2 by installing electrophiles at the pY+1 or pY+2 positions to enable a proximal conjugation reaction with one of the lysine residues. Covalent blockage through the characteristic lysine residues will maximize the specificity of the inhibitor toward Nck-SH2. As sulfonyl fluoride has been reported to react with proteinaceous nucleophiles such as lysine, histidine, or cysteine,[34] we installed a sulfonyl fluoride group on the side chain of diaminopropionic acid, giving an unnatural amino acid X1 at different positions such as pY+1 (Asp6) and pY+3 (Val8) of peptide EEHIpYDEVAAD. Besides the amino acid X1, we also included α-chloroacetyl-carrying amino acids X2 and X3, which may also react with proteineous nucleophiles. Electrophile-containing reactive peptides p1 to p11 were synthesized with a biotin tag at the N-termini (Figure 4b). After the reactive peptides were incubated with recombinant Nck protein at a 5:1 ratio at 37 °C in PBS for 1 h, the formation of covalently linked Nck–peptide conjugates could be observed, shown as new protein bands with molecular weights higher than that of Nck based on denatured SDS-PAGE and Western blotting analysis against biotin (Figure 4c). […] At 37 °C in PBS buffer, the 1:1 reaction efficiency reached 50% in 2 min (Figure S4 in the Supporting Information).
Figure 4 Covalently reactive peptides designed based on a Tir peptide. (a) Crystal structure of Nck-SH2 in complex with a peptide EEHIpYDEVAAD from EPEC protein Tir (PDB: 2CI9). (b) List of synthetic reactive peptides. (c) Unnatural amino acids in the peptides. (d) SDS-PAGE (top) and Western blotting (bottom) analyses showing covalent conjugation of the peptides with Nck. […]

In a further data set the test system is Nck-SH2. The settings on record: cited from earlier work. The text has this: Phosphorylated Tir is known to bind to Nck-SH2. […] Also, the sequence of nephrin contains three Tyr-containing sequences that are similar to those of the Tir peptide: HLYDEV, PLYDEV, and GIYDQV (the potential phosphorylation sites are underscored), with a hydrophobic residue at the pY-1 site, and negatively charged residues at pY+1 and/or pY+2 (Figure 2c). Therefore, we reason that phosphorylation at these Tyr turns nephrin into p-nephrin, a ...

The subject of data set [1] is EPEC infection of Caco-2 cells. Nature of the data set: EPEC infection assay of Caco-2 cells (CFU counts). In kind it is cell-based, enteropathogenic Escherichia coli. The following applies: with L17E-mediated delivery, L17E 40 μM. On the procedure: Lastly, to examine whether pretreatment of Caco-2 cells with L17E/p1 could prevent EPEC infection, we first established a bacterial infection assay (Figure 7a). Caco-2 cells were pretreated with L17E/p1 for 2 h. After excess peptides were removed, Caco-2 cells were then infected with EPEC at different multiplicity of infection (MOI) values (MOI is commonly defined as the ratio of infectious bacteria to cells in a culture) for 3 h, and extra bacterial cells were removed from the culture. Next, gentamicin was added to the cell culture to remove EPEC that are merely attached to the surface of Caco-2 cells, leaving only engulfed EPEC inside Caco2 cells to be counted (gentamicin treatment will not kill intracellular bacteria due to its cellular impermeability). After gentamicin was washed away, cells were lysed to release EPEC cells inside, and the cell lysates were diluted to count the number of EPEC cells as colony-forming units (cfu) on agar plates.
Caco-2 cells were seeded in a 24-well plate at a density of 1×10^4 cells for 24 h and pretreated with peptide complexes for 2 h. After washing with DMEM, cells were infected with EPEC at selected MOI values for 3 h at 37 ℃. Cells were then treated with gentamicin ([…]) for 2 h and lysed with 1% […]
Triton X-100 for 15 min. […]
The sample was loaded onto 12% SDS/PAGE glycerol gel and then transferred onto a PVDF membrane using Bio-Rad […]. The membrane was blocked and incubated with a rabbit anti-Nck antibody (Abcam, Hong Kong) at 4 °C overnight, followed by a n anti -rabbit HRP -labeled secondary antibody (Abcam, Hong Kong).
SPSS 23.0 statistical software was used to process experimental data. The differences between mean ± SEM of three independent experiments were assessed by Student's t -test.

Non-standard residues stand in square brackets, D forms with d. Residues, ends and D or L forms follow the SMILES beside them. *: point of attachment. Biotin = O=C1N[C@H]2[C@H](CS[C@H]2CCCCC(=O)*)N1; Benzoyl(3-SO2F) = O=C(c1cccc(S(=O)(=O)F)c1)*; pY = N[C@@H](Cc1ccc(OP(=O)(O)O)cc1)C(=O)O; Dap = NC[C@H](N)C(=O)O

For `CC[C@H](C)[C@H](NC(=O)[C@H](Cc1c[nH]cn1)NC(=O)[C@H](CCC(=O)O)NC(=O)[C@H](CCC(=O)O)NC(=O)CCCC[C@@H]1SC[C@@H]2NC(=O)N[C@@H]21)C(=O)N[C@@H](Cc1ccc(OP(=O)(O)O)cc1)C(=O)N[C@@H](CC(=O)O)C(=O)N[C@@H](CCC(=O)O)C(=O)N[C@H](C(=O)N[C@@H](C)C(=O)N[C@@H](C)C(=O)N[C@@H](CNC(=O)c1cccc(S(=O)(=O)F)c1)C(N)=O)C(C)C` [p7] (Biotin-EEHI[pY]DEVAA[Dap](Benzoyl(3-SO2F))-NH2), on Nck, the “reactivity with Nck” value is “noticeable reactivity”.

On to “EEHIpYDEVAADP [12-residue pY-containing Tir peptide]”, for which the “binding to Nck-SH2” value in the data set on Nck-SH2 is on record as “strong binder to Nck-SH2”.

For `CC[C@H](C)[C@H](NC(=O)[C@H](Cc1c[nH]cn1)NC(=O)[C@H](CCC(=O)O)NC(=O)[C@H](CCC(=O)O)NC(=O)[C@@H]1CCCN1)C(=O)N[C@@H](Cc1ccc(OP(=O)(O)O)cc1)C(=O)N[C@@H](CC(=O)O)C(=O)N[C@@H](CCC(=O)O)C(=O)N[C@H](C(=O)N[C@@H](C)C(=O)N[C@@H](C)C(=O)N[C@@H](CC(=O)O)C(=O)N1CCC[C@H]1C(=O)NCC(N)=O)C(C)C` [Y474], the “blockage of EPEC invasion/infection of Caco-2 cells” value in data set [1] is given as “can block EPEC invasion to Caco-2 cells”.
